# Measurements as given in patent US20250034216A1, “STEREOSELECTIVE COVALENT LIGANDS FOR ONCOGENIC AND IMMUNOLOGICAL PROTEINS” (The Scripps Research Institute, priority 2021, published 2025).
# How the values were obtained:
# Assay in all cases: IA-DTB cysteine engagement
# Assay type in all cases: binding
# HIRA_C673 = target: T1, HIRA_C673 (Homo sapiens, UniProt P54198); conditions: 22Rv1 cells, 20 μM probe, 1 h, relative to DMSO
# T1 construct: endogenous in cells; host or cells: 22Rv1
# How it was run: (§1)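 Read-out is TMT-based cysteine engagement, expressed as each reporter ion intensity divided by the average of the DMSO channels. Before that, probe-treated cell lysates were capped with IA-DTB, digested, enriched on streptavidin and TMT-tagged. PSMs with DMSO summed intensity <10,000 or DMSO CV >0.5 were excluded.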
# STK11_C418 = target: T2, STK11_C418 (Homo sapiens, UniProt Q15831); conditions: 22Rv1 cells, 20 μM probe, 1 h, relative to DMSO
# T2 construct: endogenous in cells; host or cells: 22Rv1
# T2 sequence (Q15831 1-433): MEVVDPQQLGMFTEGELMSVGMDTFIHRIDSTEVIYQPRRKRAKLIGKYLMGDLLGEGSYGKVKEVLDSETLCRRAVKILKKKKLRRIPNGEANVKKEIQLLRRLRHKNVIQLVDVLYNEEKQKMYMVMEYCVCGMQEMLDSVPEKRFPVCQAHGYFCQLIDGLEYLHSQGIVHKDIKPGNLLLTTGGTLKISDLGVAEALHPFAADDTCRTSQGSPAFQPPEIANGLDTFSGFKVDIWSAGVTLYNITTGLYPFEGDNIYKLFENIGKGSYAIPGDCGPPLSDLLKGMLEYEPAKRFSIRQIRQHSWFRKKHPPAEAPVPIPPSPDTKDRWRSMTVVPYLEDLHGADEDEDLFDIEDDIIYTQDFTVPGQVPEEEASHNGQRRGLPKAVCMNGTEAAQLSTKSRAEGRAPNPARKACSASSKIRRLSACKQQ
# How it was run: as §1
# PTGES2_C110 = target: T3, PTGES2_C110 (Homo sapiens, UniProt Q9H7Z7); conditions: 22Rv1 cells, 20 μM probe, 1 h, relative to DMSO
# T3 construct: endogenous in cells; host or cells: 22Rv1
# How it was run: as §1
# SLC25A20_C283 = target: T4, SLC25A20_C283 (Homo sapiens, UniProt O43772); conditions: 22Rv1 cells, relative to DMSO; for % engagement SLC25A20_C283: 20 μM probe, 1 h; for % engagement SLC25A20_283: 5 μM probe, 1 h (FIG. 5B)
# T4 construct: endogenous in cells; host or cells: 22Rv1
# T4 sequence (O43772 1-301): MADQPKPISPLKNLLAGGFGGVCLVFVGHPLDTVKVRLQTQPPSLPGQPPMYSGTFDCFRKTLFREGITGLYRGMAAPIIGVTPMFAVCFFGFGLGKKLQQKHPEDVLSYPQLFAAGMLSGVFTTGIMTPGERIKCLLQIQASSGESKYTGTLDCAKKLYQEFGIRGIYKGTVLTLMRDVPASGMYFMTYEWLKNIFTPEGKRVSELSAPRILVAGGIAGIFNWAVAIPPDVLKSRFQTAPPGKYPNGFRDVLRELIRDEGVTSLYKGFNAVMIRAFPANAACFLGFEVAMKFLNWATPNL
# How it was run: as §1
# T1 sequence (P54198 whole entry): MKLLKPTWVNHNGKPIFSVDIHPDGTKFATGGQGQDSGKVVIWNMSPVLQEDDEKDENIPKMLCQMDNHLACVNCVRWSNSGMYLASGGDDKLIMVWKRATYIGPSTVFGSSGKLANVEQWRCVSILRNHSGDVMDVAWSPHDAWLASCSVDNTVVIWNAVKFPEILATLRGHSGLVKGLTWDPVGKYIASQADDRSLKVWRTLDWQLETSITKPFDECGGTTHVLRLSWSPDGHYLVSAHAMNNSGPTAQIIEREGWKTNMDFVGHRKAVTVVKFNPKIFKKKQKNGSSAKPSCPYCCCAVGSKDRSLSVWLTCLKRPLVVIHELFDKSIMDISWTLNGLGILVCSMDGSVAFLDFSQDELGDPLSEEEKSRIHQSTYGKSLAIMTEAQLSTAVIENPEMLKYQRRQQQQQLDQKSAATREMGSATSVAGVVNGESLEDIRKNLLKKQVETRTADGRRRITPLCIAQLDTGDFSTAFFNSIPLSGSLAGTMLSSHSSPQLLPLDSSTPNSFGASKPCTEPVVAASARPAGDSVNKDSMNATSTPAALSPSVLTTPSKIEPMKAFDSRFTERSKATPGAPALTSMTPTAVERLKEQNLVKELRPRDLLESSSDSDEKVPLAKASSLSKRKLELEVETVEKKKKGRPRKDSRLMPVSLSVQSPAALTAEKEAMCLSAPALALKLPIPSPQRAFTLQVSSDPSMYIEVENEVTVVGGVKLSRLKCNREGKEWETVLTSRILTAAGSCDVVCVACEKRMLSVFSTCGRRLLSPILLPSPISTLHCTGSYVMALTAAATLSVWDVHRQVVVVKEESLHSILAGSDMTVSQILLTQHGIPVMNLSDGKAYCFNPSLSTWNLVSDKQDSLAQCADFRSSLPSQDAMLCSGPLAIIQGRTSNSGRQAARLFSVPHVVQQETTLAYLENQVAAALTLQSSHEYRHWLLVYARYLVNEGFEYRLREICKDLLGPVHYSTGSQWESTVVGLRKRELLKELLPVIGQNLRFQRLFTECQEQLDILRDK
# T3 sequence (Q9H7Z7 whole entry): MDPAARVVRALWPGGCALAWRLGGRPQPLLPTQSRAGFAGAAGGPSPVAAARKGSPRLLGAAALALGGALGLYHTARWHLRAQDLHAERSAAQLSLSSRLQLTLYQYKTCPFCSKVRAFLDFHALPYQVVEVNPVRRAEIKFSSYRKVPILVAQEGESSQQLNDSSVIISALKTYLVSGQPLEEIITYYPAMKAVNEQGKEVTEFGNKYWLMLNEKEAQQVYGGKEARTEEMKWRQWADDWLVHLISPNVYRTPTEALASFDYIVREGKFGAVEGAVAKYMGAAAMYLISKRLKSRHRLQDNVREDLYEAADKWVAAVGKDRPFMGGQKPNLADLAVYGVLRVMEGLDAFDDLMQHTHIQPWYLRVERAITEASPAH
% engagement HIRA_C673 (HIRA_C673) [%],% engagement STK11_C418 (STK11_C418) [%],% engagement PTGES2_C110 (PTGES2_C110) [%],% engagement SLC25A20_C283 (SLC25A20_C283) [%],% engagement SLC25A20_283 (SLC25A20_C283) [%],SMILES
11.5,38,69.75,66,–,"C=CC(=O)N1C[C@H](c2ccc(Br)cc2)[C@H]1C(=O)Nc1cccc2cccnc12 [MY-3A, (2S,3S)-1-acryloyl-3-(4-bromophenyl)-N-(quinolin-8-yl)azetidine-2-carboxamide]"
73,61.5,89.25,−241,–,"C=CC(=O)N1C[C@H](c2ccc(Br)cc2)[C@H]1C(=O)Nc1cccc2cccnc12 [MY-3B, (2S,3S)-1-acryloyl-3-(4-bromophenyl)-N-(quinolin-8-yl)azetidine-2-carboxamide]"
–,–,–,–,20.50,"CC#CC(=O)N1C[C@H](c2ccc(Br)cc2)[C@@H]1C(=O)Nc1cccc2cccnc12 [MY-45B, (2R,3S)-3-(4-bromophenyl)-1-(but-2-ynoyl)-N-(quinolin-8-yl)azetidine-2-carboxamide]"

# The next lines start with the compound.
SMILES,% engagement HIRA_C673 (HIRA_C673) [%],% engagement STK11_C418 (STK11_C418) [%],% engagement PTGES2_C110 (PTGES2_C110) [%],% engagement SLC25A20_C283 (SLC25A20_C283) [%],% engagement SLC25A20_283 (SLC25A20_C283) [%]
"C=CC(=O)N1C[C@@H](c2ccc(Br)cc2)[C@H]1C(=O)Nc1cccc2cccnc12 [MY-1A, (2S,3R)-1-acryloyl-3-(4-bromophenyl)-N-(quinolin-8-yl)azetidine-2-carboxamide]",−12,83.5,31.25,37,–
"C=CC(=O)N1C[C@H](c2ccc(Br)cc2)[C@@H]1C(=O)Nc1cccc2cccnc12 [MY-1B, (2R,3S)-1-acryloyl-3-(4-bromophenyl)-N-(quinolin-8-yl)azetidine-2-carboxamide]",3,66.5,38.5,92,82.75
